# Earlier results, collected in US20190008973A1, “INTRALIPID-IODINE FOR IMAGING” (priority 2017, published 2019).
# Entries after “also recorded” stand apart in the source; their conditions may differ. Like-named read-outs stand apart in the source and are kept apart here.
# Legend:
# [1] = system: ischemia/reperfusion injury; details: cited from earlier work
# [2] = system: ischemia-reperfusion (IR) injury; details: sham-operated hearts; cited from earlier work
# spinal anaesthesia = details: spinal with 40 mg CP 1%; outpatient knee arthroscopy; versus general anaesthesia 142 min, P=0.0047; cited from earlier work
# [3] = system: I/R injury in late pregnancy; details: rat, in vivo; cited from earlier work
# [4] = system: spinal cord ischemia and reperfusion; details: intrathecal, cited from earlier work
# [5] = biological target: T1, ATPase of F1 particles from bovine heart mitochondria (Bos taurus, UniProt P00829+P19483); details: read-out: concentration required for 50% inhibition of ATPase activity; cited from earlier work
# T1 construct: F1 particles isolated from bovine heart mitochondria; from tissue; host or cells: bovine heart mitochondria
# mitochondrial ATPase = biological target: T2, mitochondrial ATPase (Homo sapiens, UniProt P06576+P25705); details: reciprocal plots; cited from earlier work
# T2 construct: mitochondrial ATPase prepared by the chloroform extraction method; from tissue; host or cells: mitochondria
# drug overdose = details: after lipid emulsion; cited from earlier work
# [6] = system: cardiac and regional blood flow; details: propofol 4 mg/kg then 0.6 mg/kg/min; Intralipid 0.25 ml/kg then 0.06 ml/kg/min; cited from earlier work
# [7] = system: propofol-mediated hypotension; details: cited from earlier work
# oxygen desaturation = details: in vivo; cited from earlier work
# [8] = system: bupivacaine cardiotoxicity; set-up: AUC of total bupivacaine, mean (standard deviation) / AUC of the lipid-un-entrapped bupivacaine portion: concentration or dose not given beside the values; details: cited from earlier work
# brachial plexus [9] = details: in vivo; cited from earlier work
# brachial plexus [10] = details: 30 ml, cited from earlier work
# brachial plexus [11] = details: in vivo; cited from earlier work; remark: listed apart in the source
# total spinal anesthesia [12] = details: in vivo; cited from earlier work
# [13] = system: bupivacaine-induced asystole; details: cited from earlier work
# bupivacaine mortality = details: cited from earlier work
# [14] = plasma-Intralipid mixture, n=3; cited from earlier work
# spinal anesthesia = details: cited from earlier work
# total spinal anesthesia [15] = details: in vivo; cited from earlier work; remark: listed apart in the source
# postoperative delirium = details: postoperative analgesia; cited from earlier work
# [16] = system: N43 hypothalamic neuronal cells; details: cited from earlier work
# clomipramine toxicity = details: 8 mL/kg 20% Intralipid or 2 mL/kg 8.4% sodium bicarbonate, n=4; cited from earlier work
# [17] = system: cocaine- and cocaethylene-induced cardiac depression; details: 0.25% lipid emulsion or SBE-β-CD; cited from earlier work
# [18] = system: levobupivacaine myocardial toxicity; details: pig, in vivo; cited from earlier work
# brachial plexus [19] = details: in vivo; cited from earlier work; remark: listed apart in the source
# brachial plexus [20] = details: in vivo; cited from earlier work; remark: listed apart in the source
# axillary plexus = details: in vivo; cited from earlier work
# [21] = system: cardiac arrest caused by bupivacaine intoxication; details: epinephrine 10 μg/kg, Intralipid 20% 4 ml/kg, vasopressin 2 IU; cited from earlier work
# [22] = system: hemodynamic compromise owing to bupivacaine intoxication; details: epinephrine 3 μg/kg or Intralipid 20% 2 ml/kg; cited from earlier work
# brachial plexus [23] = details: 150 μg clonidine or 200 μg epinephrine with 0.25% bupivacaine; cited from earlier work
# hippocampus = details: cited from earlier work
compound,measurement,setting,value
COc1cccc(-c2cc(=O)c3ccccc3o2)c1N [PD98059],effect of inhibitor on Intralipid-induced cardioprotection,[1],only partially
same,effect of inhibitor on infarct-sparing effect of ILP,[2],only partially
"CCN(CC)CCOC(=O)c1ccc(N)cc1Cl [CP 1%, Chloroprocaine]",Time to reaching discharge criteria,spinal anaesthesia,117 min
O=[N+]([O-])c1ccc2c(c1)S(=O)(=O)C=C2 [Stattic],effect of inhibitor on ITLD-induced cardioprotection,[3],fully abolished
CCCCNc1ccc(C(=O)OCCN(C)C)cc1 [tetracaine],neurologically normal animals,[4]; aortic occlusion 25 minutes,100%
same,neurologically normal animals,[4]; aortic occlusion 30 minutes,86%
same,IC50,[5],1100 µM
same,kind of inhibition,mitochondrial ATPase,non-competitive
Cn1c(=O)c2c(ncn2C)n(C)c1=O [caffeine],plasma caffeine level,drug overdose,> 120 mg/L
"CC(C)c1cccc(C(C)C)c1O [Propofol, propofol]",cardiac and regional hemodynamic changes,[6],"increases in heart rate, coronary and carotid blood flows, and decreases in systemic vascular resistance and dP/dt"
same,drop in MAP,[7]; 10 mg/kg IV,55+/−2%
same,lowering of MAP,[7]; under chlorisondamine and phenylephrine,12+/−4%
same,odds ratio for oxygen desaturation,oxygen desaturation,5.22 (95% CI 1.78-15.35)
CCCCN1CCCCC1C(=O)Nc1c(C)cccc1C (stereo not shown) [bupivacaine],AUC of the lipid-un-entrapped bupivacaine portion,[8]; after Intralipid,97.0(14.5) mg·min/L
same,"AUC of total bupivacaine, mean (standard deviation)",[8]; after Intralipid,105.2(13.6) mg·min/L
same,un-entrapped AUC lower than total bupivacaine,[8]; after Intralipid,8%
same,"AUC of total bupivacaine, mean (standard deviation)",[8]; after Ringer's acetate,88.1(7.1) mg·min/L
same,patients requiring supplementation,brachial plexus [9],9 of the 22
same,duration of motor block,brachial plexus [10],12.94 h
same,duration of sensory block,brachial plexus [10],11.58 h
same,onset of motor block,brachial plexus [10],21.45 ± 4.45 min
same,onset of sensory block,brachial plexus [10],16.85 ± 6.67 min
same,muscle relaxation judged as excellent,brachial plexus [11],30/49
same,mean duration of action,total spinal anesthesia [12],1.511 to 3 h
same,"concentration of bupivacaine in plasma, mean+/−SE",[13]; 30% Intralipid,212+/−45 micrograms per millilitre
same,median dose of bupivacaine producing asystole,[13]; after saline pretreatment,17.7 milligrams per kilogram
same,"concentration of bupivacaine in plasma, mean+/−SE",[13]; saline,93.3+/−7.6 micrograms per millilitre
same,dose of bupivacaine required to cause death in 50% of animals,bupivacaine mortality; resuscitation with 30% Intralipid,18.5 mg/kg
same,dose of bupivacaine required to cause death in 50% of animals,bupivacaine mortality; resuscitation with saline,12.5 mg/kg
same,mean lipid:aqueous ratio of concentrations,[14],11.9+/−1.77
same,Duration of procedures it is appropriate for,spinal anesthesia; long acting spinal anesthetic,2 to 2.5 h
same,Onset,"spinal anesthesia; spinal anesthetic, longer with isobaric forms",5 to 10 min
same,further time to consciousness,total spinal anesthesia [15],65 min
same,time to spontaneous respiration,total spinal anesthesia [15],120 min
CCOC(=O)C1(c2ccccc2)CCN(C)CC1 [meperidine],delirium incidence,postoperative delirium,significantly higher
CCCCC/C=C\C/C=C\CCCCCCCC(=O)O [linoleic acid],palmitic acid-induced inflammation,[16],reduces palmitic acid-induced inflammation
"O=C([O-])O.[Na+] [bicarbonate, sodium bicarbonate]",circulation in second phase (severe toxicity),clomipramine toxicity,developed pulseless electrical activity
sulfobutylether-β-cyclodextrin [SBE-β-CD],cardiac depression in Langendorff hearts,[17],mild cardio depressant effect; also recorded: mild cardiodepressant effect
CCCCN1CCCC[C@H]1C(=O)Nc1c(C)cccc1C [levobupivacaine],haemodynamic effects of IV injection,[18],induced sinus bradycardia and reduced dMAP and LV dP/dtmax
same,need for rescue analgesics,brachial plexus [19],55%
CCCN1CCCC[C@H]1C(=O)Nc1c(C)cccc1C [ropivacaine],patients requiring supplementation,brachial plexus [9],8 of the 22
same,duration of motor blocks,brachial plexus [20],12±5
same,duration of sensorial analgesia,brachial plexus [20],13.4±6
same,mean time of block offset,axillary plexus,13.5 h
same,need for rescue analgesics,brachial plexus [19],65%
same,duration of motor block,brachial plexus [10]; listed as 0.5% ropivacaine,8.29 h
same,duration of sensory block,brachial plexus [10]; listed as 0.5% ropivacaine,9.02 h
same,onset of motor block,brachial plexus [10]; listed as 0.5% ropivacaine,22.23 ± 4.05 min
same,onset of sensory block,brachial plexus [10]; listed as 0.5% ropivacaine,17.79 ± 5.03 min
same,duration of motor block,brachial plexus [10]; listed as 0.75% ropivacaine,7.89 h
same,duration of sensory block,brachial plexus [10]; listed as 0.75% ropivacaine,8.87 h
same,onset of motor block,brachial plexus [10]; listed as 0.75% ropivacaine,22.33 ± 5.17 min
same,onset of sensory block,brachial plexus [10]; listed as 0.75% ropivacaine,18.48 ± 6.14 min
same,muscle relaxation judged as excellent,brachial plexus [11],35/49
CNC[C@H](O)c1ccc(O)c(O)c1 [epinephrine],survival,[21],71%
same,survival,[22],100%
same,duration of block,brachial plexus [23],728.3 ± 35.8 min
CCCCCC(O)C=CC=CCCCCCCCC(=O)O (stereo not shown) [13-hydroxyoctadecadienoic acid],increase of somatic paired-pulse facilitation,hippocampus,80%
